Source: article PMC10303200 (ACS Central Science, 2023)

Tests used:
Format in all cases: binding
GAL-7 [1] = molecular target: T1, GAL-7 (Homo sapiens, UniProt P47929); assay: Direct native ESI-MS of the GAL-7 homodimer with a mixture of ten glycans (G2, G5-G13), 200 mM ammonium acetate, pH 6.9.; conditions: SD, n = 8; read-out: Kd (nMS), Table S4
T1 construct: gene LGALS7; homodimer (monomer MW 14.94 kDa)

GAL-3C [2] = molecular target: T2, GAL-3C (Homo sapiens, UniProt P17931); assay: Direct native ESI-MS with a mixture of ten glycans (G2, G5-G13), 200 mM ammonium acetate, pH 6.9.; parameters: gene LGALS3; C-terminal carbohydrate recognition domain fragment, residues 107-250; conditions: SD, n = 8; read-out: Kd (nMS), Table S3
GAL-7 [3] = molecular target: T1, GAL-7; assay: COIN-nMS of the GAL-7 homodimer with a mixture of ten glycans (G2, G5-G13), 200 mM ammonium acetate, pH 6.9.; conditions: SD, n = 8; read-out: Kd (COIN-nMS), Table S4
GAL-3C [4] = molecular target: T2, GAL-3C; assay: COIN-nMS with a mixture of ten glycans (G2, G5-G13), 200 mM ammonium acetate, pH 6.9.; parameters: gene LGALS3; C-terminal carbohydrate recognition domain fragment, residues 107-250; conditions: SD, n = 8; read-out: Kd (COIN-nMS), Table S3
Sig7-Fc [5] = molecular target: T3, Sig7-Fc (Homo sapiens, UniProt Q9Y286); assay: COIN-CaR-nMS with purified oligosaccharides listed beside the library glycans, 200 mM ammonium acetate, pH 6.9.; parameters: gene SIGLEC7; residues 1-345, human IgG1 Fc fusion and C-terminal His6, from CHO cells, MW 150 kDa
Target sequence in this assay (Q9Y286 1-345): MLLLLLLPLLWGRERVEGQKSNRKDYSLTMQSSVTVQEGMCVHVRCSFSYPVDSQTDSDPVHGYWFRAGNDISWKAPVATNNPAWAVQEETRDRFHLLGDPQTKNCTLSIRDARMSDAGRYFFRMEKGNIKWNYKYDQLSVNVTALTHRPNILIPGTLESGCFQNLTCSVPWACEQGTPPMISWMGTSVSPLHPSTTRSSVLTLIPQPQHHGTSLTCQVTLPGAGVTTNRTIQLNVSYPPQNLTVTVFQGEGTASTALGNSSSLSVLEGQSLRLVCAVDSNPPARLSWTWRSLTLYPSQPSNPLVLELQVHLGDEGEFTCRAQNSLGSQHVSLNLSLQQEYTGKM

Sig7-Fc [6] = molecular target: T3, Sig7-Fc; assay: COIN-CaR-nMS; parameters: Siglec 7-Fc (Sig7-Fc, residue 1–345, MW 150 kDa); His6 (C); made in house; host or cells: wild-type CHO cells
Target sequence in this assay (Q9Y286 19-345): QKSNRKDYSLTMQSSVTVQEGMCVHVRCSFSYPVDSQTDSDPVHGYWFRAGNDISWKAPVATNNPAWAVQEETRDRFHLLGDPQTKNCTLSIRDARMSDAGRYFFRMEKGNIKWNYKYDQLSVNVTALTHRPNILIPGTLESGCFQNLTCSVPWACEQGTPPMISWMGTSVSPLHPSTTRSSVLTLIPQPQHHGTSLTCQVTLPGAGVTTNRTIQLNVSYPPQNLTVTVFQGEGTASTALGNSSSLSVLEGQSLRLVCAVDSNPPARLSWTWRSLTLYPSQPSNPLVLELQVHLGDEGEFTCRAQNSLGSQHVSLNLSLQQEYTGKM

[7] = SD; read-out: Kd, purified oligosaccharides in Tables S12, S13, S18, S19
[8] = read-out: Kd, purified oligosaccharides in Tables S12, S13, S18, S19; SD
[9] = N-glycan natural libraries and purified oligosaccharides, pH 6.9, read-out: Kd

T2 sequence (P17931 107-250): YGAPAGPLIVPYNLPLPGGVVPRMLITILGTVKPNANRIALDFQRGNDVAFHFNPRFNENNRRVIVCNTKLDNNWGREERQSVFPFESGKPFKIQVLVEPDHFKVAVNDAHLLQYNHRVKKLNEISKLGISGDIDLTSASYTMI
T1 sequence (P47929 whole entry): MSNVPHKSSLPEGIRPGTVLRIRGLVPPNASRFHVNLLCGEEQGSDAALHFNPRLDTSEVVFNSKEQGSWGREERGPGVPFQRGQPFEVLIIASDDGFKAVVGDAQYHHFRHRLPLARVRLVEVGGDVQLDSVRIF

Row | Compound | Kd (GAL-7 [1]) | Kd (GAL-3C [2]) | Kd (GAL-7 [3]) | Kd (GAL-3C [4]) | also measured
1 | CC(=O)N[C@H]1[C@H](O[C@H]2[C@@H](O)[C@@H](CO)O[C@@H](O[C@H]3[C@H](O)[C@@H](NC(C)=O)[C@H](O[C@H]4[C@@H](O)[C@@H](CO)O[C@@H](O[C@H]5[C@H](O)[C@@H](NC(C)=O)[C@H](O[C@H]6[C@@H](O)[C@@H](CO)O[C@@H](O[C@H]7[C@H](O)[C@@H](O)C(O)O[C@@H]7CO)[C@@H]6O)O[C@@H]5CO)[C@@H]4O)O[C@@H]3CO)[C@@H]2O)O[C@H](CO)[C@@H](O[C@@H]2O[C@H](CO)[C@H](O)[C@H](O)[C@H]2O)[C@@H]1O (stereo partly drawn) [G8, β-D-Gal-(1→4)-β-D-GlcNAc-(1→3)-β-D-Gal-(1→4)-β-D-GlcNAc-(1→3)-β-D-Gal-(1→4)-β-D-GlcNAc-(1→3)-β-D-Gal-(1→4)-β-D-Glc] | 178 µM | 5.5 µM | 232 µM | 5.8 µM | 
2 | CC(=O)NC1C(O)CC(OC(CO)C(O)C2OC(OC(CO)C(O)C3OC(OC4C(O)C(CO)OC(OC5C(CO)OC(O)C(O)C5O)C4O)(C(=O)O)CC(O)C3NC(C)=O)(C(=O)O)CC(O)C2NC(C)=O)(C(=O)O)OC1C(O)C(O)CO [GT3, GT3 oligosaccharide, α-D-Neu5Ac-(2→8)-α-D-Neu5Ac-(2→8)-α-D-Neu5Ac-(2→3)-β-D-Gal-(1→4)-D-Glc] |  |  |  |  | Kd (Sig7-Fc [5]; SD): 184 µM
3 | CC(=O)N[C@H]1[C@H](O[C@@H]2[C@H](O[C@]3(C(=O)O)C[C@H](O)[C@@H](NC(C)=O)[C@H]([C@H](O)[C@H](O)CO)O3)[C@@H](O)[C@H](O[C@H]3[C@H](O)[C@@H](O)C(O)O[C@@H]3CO)O[C@@H]2CO)O[C@H](CO)[C@H](O)[C@@H]1O[C@@H]1O[C@H](CO)[C@H](O)[C@H](O)[C@H]1O (stereo partly drawn) [GM1, GM1 oligosaccharide, β-D-Gal(1→3)-α-D-GalNAc(1→4)-[α-D-Neu5Ac-(2→3)]-β-D-Gal-(1→4)-D-Glc] |  |  |  |  | Kd (Sig7-Fc [5]; [7]): 437 µM
4 | CC(=O)N[C@H]1[C@H](O[C@@H]2[C@H](O[C@]3(C(=O)O)C[C@H](O)[C@@H](NC(C)=O)[C@H]([C@H](O)[C@@H](CO)O[C@]4(C(=O)O)C[C@H](O)[C@@H](NC(C)=O)[C@H]([C@H](O)[C@H](O)CO)O4)O3)[C@@H](O)[C@H](O[C@H]3[C@H](O)[C@@H](O)C(O)O[C@@H]3CO)O[C@@H]2CO)O[C@H](CO)[C@H](O)[C@@H]1O[C@@H]1O[C@H](CO)[C@H](O)[C@H](O)[C@H]1O (stereo partly drawn) [GD1b, GD1b oligosaccharide, β-D-Gal(1→3)-α-D-GalNAc(1→4)-[α-D-Neu5Ac-(2→8)-α-D-Neu5Ac-(2→3)]-β-D-Gal-(1→4)-D-Glc] |  |  |  |  | Kd (Sig7-Fc [5]; [7]): 1220 µM
5 | CC(=O)N[C@H]1[C@H](O[C@@H]2[C@H](O[C@]3(C(=O)O)C[C@H](O)[C@@H](NC(C)=O)[C@H]([C@H](O)[C@@H](CO)O[C@]4(C(=O)O)C[C@H](O)[C@@H](NC(C)=O)[C@H]([C@H](O)[C@H](O)CO)O4)O3)[C@@H](O)[C@H](O[C@H]3[C@H](O)[C@@H](O)C(O)O[C@@H]3CO)O[C@@H]2CO)O[C@H](CO)[C@H](O)[C@@H]1O (stereo partly drawn) [Glycan G29, α-D-GalNAc(1→4)-[α-D-Neu5Ac-(2→8)-α-D-Neu5Ac-(2→3)]-β-D-Gal-(1→4)-D-Glc] |  |  |  |  | Kd (Sig7-Fc [6]; G21 1.0 μM and G29 30 μM, read-out: Kd (COIN-CaR-nMS), two ligands): 184 ± 5 µM; Kd (Sig7-Fc [6]; G21 5 μM and G29 30 μM, read-out: Kd (COIN-CaR-nMS), two ligands): 240 ± 2 µM; Kd (Sig7-Fc [6]; G21 10 μM and G29 30 μM, read-out: Kd (COIN-CaR-nMS), two ligands): 240 ± 10 µM
6 | CC(=O)N[C@H]1[C@H](O[C@H]2[C@@H](O)[C@@H](CO)O[C@@H](O[C@H]3[C@H](O)[C@@H](O)C(O)O[C@@H]3CO)[C@@H]2O)O[C@H](CO)[C@@H](O[C@@H]2O[C@H](CO)[C@H](O)[C@H](O)[C@H]2O)[C@@H]1O (stereo partly drawn) [G9, β-D-Gal-(1→4)-β-D-GlcNAc-(1→3)-β-D-Gal-(1→4)-β-D-Glc] | 348 µM | 23.2 µM | 439 µM | 12.9 µM | 
7 | β-D-Gal(1→3)-α-D-GalNAc(1→4)-[α-D-Neu5Ac-(2→8)-α-D-Neu5Ac-(2→8)-α-D-Neu5Ac-(2→3)]-β-D-Gal-(1→4)-D-Glc [Glycan G33] |  |  |  |  | Kd (Sig7-Fc [6]; N-glycan natural libraries and purified oligosaccharides, pH 6.9, listed as GT1c): weak or no binding
8 | CC(=O)N[C@H]1[C@H]([C@H](O)[C@H](O)CO)O[C@@](O[C@H](CO)[C@@H](O)[C@@H]2O[C@@](O[C@H]3[C@@H](O)[C@@H](CO)O[C@@H](O[C@H]4[C@H](O)[C@@H](O)C(O)O[C@@H]4CO)[C@@H]3O)(C(=O)O)C[C@H](O)[C@H]2NC(C)=O)(C(=O)O)C[C@@H]1O (stereo partly drawn) [GD3, GD3 oligosaccharide, α-D-Neu5Ac-(2→8)-α-D-Neu5Ac-(2→3)-β-D-Gal-(1→4)-D-Glc] |  |  |  |  | Kd (Sig7-Fc [5]; [7]): 97 µM
9 | CC(=O)N[C@H]1[C@H](O[C@@H]2[C@H](O[C@]3(C(=O)O)C[C@H](O)[C@@H](NC(C)=O)[C@H]([C@H](O)[C@@H](CO)O[C@]4(C(=O)O)C[C@H](O)[C@@H](NC(C)=O)[C@H]([C@H](O)[C@H](O)CO)O4)O3)[C@@H](O)[C@H](O[C@H]3[C@H](O)[C@@H](O)C(O)O[C@@H]3CO)O[C@@H]2CO)O[C@H](CO)[C@H](O)[C@@H]1O (stereo partly drawn) [G29, GD2 oligosaccharide, α-D-GalNAc(1→4)-[α-D-Neu5Ac-(2→8)-α-D-Neu5Ac-(2→3)]-β-D-Gal-(1→4)-D-Glc] |  |  |  |  | Kd (Sig7-Fc [5]; [7]): 205 µM
10 | CC(=O)N[C@H]1[C@@H](O[C@H]2[C@@H](O)[C@@H](CO)O[C@@H](O[C@H]3[C@H](O)[C@@H](CO)O[C@@H](O[C@H]4[C@@H](O)[C@@H](CO)O[C@@H](O[C@H]5[C@H](O)[C@@H](O)C(O)O[C@@H]5CO)[C@@H]4O)[C@@H]3NC(C)=O)[C@@H]2O[C@@H]2O[C@@H](C)[C@@H](O)[C@@H](O)[C@@H]2O)O[C@H](CO)[C@H](O)[C@@H]1O (stereo partly drawn) [G13, α-D-GalNAc-(1→3)-[α-L-Fuc-(1→2)]-β-D-Gal-(1→3)-β-D-GlcNAc-(1→3)-β-D-Gal-(1→4)-β-D-Glc] | 261 µM | 4.6 µM | 261 µM | 2.4 µM | 
11 | CC(=O)N[C@H]1[C@@H](O[C@H]2[C@@H](O)[C@@H](CO)O[C@@H](O[C@H]3[C@H](O)[C@@H](O)C(O)O[C@@H]3CO)[C@@H]2O[C@@H]2O[C@@H](C)[C@@H](O)[C@@H](O)[C@@H]2O)O[C@H](CO)[C@H](O)[C@@H]1O (stereo partly drawn) [G12, α-D-GalNAc-(1→3)-[α-L-Fuc-(1→2)]-β-D-Gal-(1→4)-β-D-Glc] | 184 µM | 11.3 µM | 333 µM | 10.4 µM | 
12 | CC(=O)N[C@H]1[C@H](O[C@H]2[C@@H](O)[C@@H](CO)O[C@@H](O[C@H]3[C@H](O[C@@H]4O[C@@H](C)[C@@H](O)[C@@H](O)[C@@H]4O)[C@@H](O)C(O)O[C@@H]3CO)[C@@H]2O)O[C@H](CO)[C@@H](O)[C@@H]1O[C@@H]1O[C@H](CO)[C@H](O)[C@H](O)[C@H]1O (stereo partly drawn) [G6, β-D-Gal(1→3)-β-D-GlcNAc(1→3)-β-D-Gal(1→4)-[α-L-Fuc(1→3)]-β-D-Glc] | 232 µM | 26.8 µM | 278 µM | 101 µM | 
13 | CC(=O)NC1C(OC2C(CO)OC(OC3C(CO)OC(O)C(O)C3O)C(O)C2OC2(C(=O)O)CC(O)C(NC(C)=O)C(C(O)C(CO)OC3(C(=O)O)CC(O)C(NC(C)=O)C(C(O)C(CO)OC4(C(=O)O)CC(O)C(NC(C)=O)C(C(O)C(O)CO)O4)O3)O2)OC(CO)C(O)C1O [GT2, GT2 oligosaccharide, α-D-GalNAc(1→4)-[α-D-Neu5Ac-(2→8)-α-D-Neu5Ac-(2→8)-α-D-Neu5Ac-(2→3)]-β-D-Gal-(1→4)-D-Glc] |  |  |  |  | Kd (Sig7-Fc [5]; [8]): 235 µM
14 | α-D-GalNAc(1→4)-[α-D-Neu5Ac-(2→3)]-β-D-Gal-(1→4)-D-Glc [Glycan G28] |  |  |  |  | Kd (Sig7-Fc [6]; [9]): 460 ± 117 µM
15 | CC(=O)NC1C(OC2C(CO)OC(OC3C(CO)OC(O)C(O)C3O)C(O)C2OC2(C(=O)O)CC(O)C(NC(C)=O)C(C(O)C(O)CO)O2)OC(CO)C(O)C1O [GM2, GM2 oligosaccharide, α-D-GalNAc(1→4)-[α-D-Neu5Ac-(2→3)]-β-D-Gal-(1→4)-D-Glc] |  |  |  |  | Kd (Sig7-Fc [5]; [8]): 460 µM
16 | α-D-Neu5Ac-(2→8)-α-D-Neu5Ac-(2→8)-α-D-Neu5Ac-(2→3)-β-D-Gal-(1→4)-D-Glc [Glycan G27] |  |  |  |  | Kd (Sig7-Fc [6]; [9]): 184 ± 41 µM
